Assay results reported in patent publication US12139499B2, “Heteroaryl compounds for treating Huntington's disease” (PTC THERAPEUTICS, INC., priority 2018, dated 2024).

Tested on: Endogenous Huntingtin Protein
Assay: Endogenous Huntingtin Protein Assay (ELISA-based MSD electrochemiluminescence)
Type: cell-based
Settings: Table 1
Method in brief: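 Huntingtin was captured overnight at 4 °C on plates coated with 1 μg/mL MW1 (polyQ-expanded) or MAB2166 antibody and BSA-blocked. Detection used a rabbit monoclonal and then a SULFO-TAG goat anti-rabbit antibody (0.25 μg/mL, 1 h each, room temperature). Signal was read by electrochemiluminescence.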

Q: With `Cc1cn2cc(-c3ccc4nc(N(C)C5CC6CCC(C5)N6)sc4n3)cc(F)c2n1` (stereo not drawn) [Compound 277, N-[(3-exo)-8-azabicyclo[3.2.1]oct-3-yl]-5-(8-fluoro-2-methylimidazo[1,2-a]pyridin-6-yl)-N-methyl[1,3]thiazolo[5,4-b]pyridin-2-amine] as the compound, how does the IC50 read?
A: The IC50 was 100 to 500 nM.

Q: How did the IC50 turn out when `CN(c1nc2ccc(-c3cc(C#N)c4nn(C)cc4c3)nc2s1)C1CC2CCC(C1)N2` (stereo not drawn) [Compound 278, 5-{2-[(3-exo)-8-azabicyclo[3.2.1]oct-3-yl(methyl)amino][1,3]thiazolo[5,4-b]pyridin-5-yl}-2-methyl-2H-indazole-7-carbonitrile] was run?
A: The IC50 was no more than 100 nM.

Q: With `Cc1cn2cc(-c3ccc4nc(N(C)C5CC6CCCC(C5)N6)sc4n3)cc(C#N)c2n1` (stereo not drawn) [Compound 279, 6-{2-[(3-exo)-9-azabicyclo[3.3.1]non-3-yl(methyl)amino][1,3]thiazolo[5,4-b]pyridin-5-yl}-2-methylimidazo[1,2-a]pyridine-8-carbonitrile] as the compound, how does the IC50 read?
A: Its IC50 is no more than 100 nM.

Q: Which IC50 does the source give for `Cc1cn2cc(-c3ccc4nc(N(C)C5CC6CCCC(C5)N6)sc4n3)cc(F)c2n1` (stereo not drawn) [Compound 280, N-[(3-exo)-9-azabicyclo[3.3.1]non-3-yl]-5-(8-fluoro-2-methylimidazo[1,2-a]pyridin-6-yl)-N-methyl[1,3]thiazolo[5,4-b]pyridin-2-amine] here?
A: The IC50 was no more than 100 nM.

Q: For `CN(c1nc2ccc(-c3cc(C#N)c4nn(C)cc4c3)nc2s1)C1CC2CCCC(C1)N2` (stereo not drawn) [Compound 281, 5-{2-[(3-exo)-9-azabicyclo[3.3.1]non-3-yl(methyl)amino][1,3]thiazolo[5,4-b]pyridin-5-yl}-2-methyl-2H-indazole-7-carbonitrile], which IC50 is on record?
A: Its IC50 is no more than 100 nM.

Q: `CN(c1nc2nnc(-c3ccc(-c4cn[nH]c4)cc3O)cc2s1)C1CCNCC1` [Compound 282, 2-{6-[methyl(piperidin-4-yl)amino][1,3]thiazolo[4,5-c]pyridazin-3-yl}-5-(1H-pyrazol-4-yl)phenol] was tested. Which IC50 did it give?
A: The IC50 was no more than 100 nM.

Q: Which IC50 does the source give for `CN1CCC(N(C)c2nc3nnc(-c4ccc(-c5cn[nH]c5)cc4O)cc3s2)CC1` [Compound 283, 2-{6-[methyl(1-methylpiperidin-4-yl)amino][1,3]thiazolo[4,5-c]pyridazin-3-yl}-5-(1H-pyrazol-4-yl)phenol] here?
A: Its IC50 is 500 to 1000 nM.

Q: `Cc1cn2cc(-c3ncc4nc(N(C)C5CC6(C)CCC(C)(C5)N6)sc4n3)cc(F)c2n1` [Compound 284, N-[(1R,3s,5S)-1,5-dimethyl-8-azabicyclo[3.2.1]octan-3-yl]-5-(8-fluoro-2-methylimidazo[1,2-a]pyridin-6-yl)-N-methyl[1,3]thiazolo[5,4-d]pyrimidin-2-amine] was tested. Which IC50 did it give?
A: Its IC50 is no more than 100 nM.

Q: `Cc1cn2cc(-c3cc4sc(N(C)C5CC6(C)CCC(C)(C5)N6)nc4cn3)cc(C#N)c2n1` [Compound 285, 6-(2-{[(1R,3s,5S)-1,5-dimethyl-8-azabicyclo[3.2.1]octan-3-yl](methyl)amino}[1,3]thiazolo[4,5-c]pyridin-6-yl)-2-methylimidazo[1,2-a]pyridine-8-carbonitrile] was tested. Which IC50 did it give?
A: Its IC50 is no more than 100 nM.

Q: `Cc1cn2cc(-c3cc4sc(N(C)C5CC6(C)CCC(C)(C5)N6)nc4cn3)cc(F)c2n1` [Compound 286, N-[(1R,3s,5S)-1,5-dimethyl-8-azabicyclo[3.2.1]octan-3-yl]-6-(8-fluoro-2-methylimidazo[1,2-a]pyridin-6-yl)-N-methyl[1,3]thiazolo[4,5-c]pyridin-2-amine] was tested. Which IC50 did it give?
A: Its IC50 is no more than 100 nM.

Q: With `CN(c1nc2cnc(-c3cc(C#N)c4nn(C)cc4c3)cc2s1)C1CC2(C)CCC(C)(C1)N2` [Compound 287, 5-(2-{[(1R,3s,5S)-1,5-dimethyl-8-azabicyclo[3.2.1]octan-3-yl](methyl)amino}[1,3]thiazolo[4,5-c]pyridin-6-yl)-2-methyl-2H-indazole-7-carbonitrile] as the compound, how does the IC50 read?
A: Its IC50 is no more than 100 nM.

Q: For `Cc1cn2cc(-c3cnc4nc(N(C)C5CCNCC5)sc4n3)cc(C)c2n1` [Compound 288, 6-(2,8-dimethylimidazo[1,2-a]pyridin-6-yl)-N-methyl-N-(piperidin-4-yl)[1,3]thiazolo[4,5-b]pyrazin-2-amine], which IC50 is on record?
A: The IC50 was 100 to 500 nM.

Q: How did the IC50 turn out when `CN(c1nc2cnc(-c3cc(F)c4nn(C)cc4c3)nc2s1)C1CC2(C)CC[C@](C)(C1)N2` (stereo partly drawn) [Compound 289, N-[(1R)-1,5-dimethyl-8-azabicyclo[3.2.1]octan-3-yl]-5-(7-fluoro-2-methyl-2H-indazol-5-yl)-N-methyl[1,3]thiazolo[5,4-d]pyrimidin-2-amine] was run?
A: Its IC50 is no more than 100 nM.

Q: With `Cc1nc2c(C#N)cc(-c3ncc4nc(N(C)C5CC6(C)CC[C@](C)(C5)N6)sc4n3)cc2o1` (stereo partly drawn) [Compound 290, 6-(2-{[(1R)-1,5-dimethyl-8-azabicyclo[3.2.1]octan-3-yl](methyl)amino}[1,3]thiazolo[5,4-d]pyrimidin-5-yl)-2-methyl-1,3-benzoxazole-4-carbonitrile] as the compound, how does the IC50 read?
A: The IC50 was no more than 100 nM.

Q: Which IC50 does the source give for `Cc1cn2cc(-c3ccc4nc(N(C)C5CC6(C)CCC(C)(C5)N6)sc4n3)cc(C#N)c2n1` [Compound 291, 6-(2-{[(1R,3s,5S)-1,5-dimethyl-8-azabicyclo[3.2.1]octan-3-yl](methyl)amino}[1,3]thiazolo[5,4-b]pyridin-5-yl)-2-methylimidazo[1,2-a]pyridine-8-carbonitrile] here?
A: Its IC50 is no more than 100 nM.

Q: `Cc1cn2cc(-c3ccc4nc(N(C)C5CC6(C)CCC(C)(C5)N6)sc4n3)cc(F)c2n1` [Compound 292, N-[(1R,3s,5S)-1,5-dimethyl-8-azabicyclo[3.2.1]octan-3-yl]-5-(8-fluoro-2-methylimidazo[1,2-a]pyridin-6-yl)-N-methyl[1,3]thiazolo[5,4-b]pyridin-2-amine] was tested. Which IC50 did it give?
A: The IC50 was no more than 100 nM.

Q: `CN(c1nc2ccc(-c3cc(C#N)c4nn(C)cc4c3)nc2s1)C1CC2(C)CCC(C)(C1)N2` [Compound 293, 5-(2-{[(1R,3s,5S)-1,5-dimethyl-8-azabicyclo[3.2.1]octan-3-yl](methyl)amino}[1,3]thiazolo[5,4-b]pyridin-5-yl)-2-methyl-2H-indazole-7-carbonitrile] was tested. Which IC50 did it give?
A: The IC50 was no more than 100 nM.

Q: `CN(c1nc2ccc(-c3cc(F)c4nn(C)cc4c3)nc2s1)C1CC2(C)CCC(C)(C1)N2` [Compound 294, N-[(1R,3s,5S)-1,5-dimethyl-8-azabicyclo[3.2.1]octan-3-yl]-5-(7-fluoro-2-methyl-2H-indazol-5-yl)-N-methyl[1,3]thiazolo[5,4-b]pyridin-2-amine] was tested. Which IC50 did it give?
A: The IC50 was 100 to 500 nM.

Q: With `CN(c1nc2ccc(-c3cc(F)c4nn(C)cc4c3)nc2s1)C1CC2CCCC(C1)N2` (stereo not shown) [Compound 295, N-(9-azabicyclo[3.3.1]nonan-3-yl)-5-(7-fluoro-2-methyl-2H-indazol-5-yl)-N-methyl[1,3]thiazolo[5,4-b]pyridin-2-amine] as the compound, how does the IC50 read?
A: Its IC50 is 100 to 500 nM.

Q: For `Cc1cn2cc(-c3cc4sc(N(C)C5CC(C)(C)NC(C)(C)C5)nc4cn3)nc2c(C)n1` [Compound 296, 6-(6,8-dimethylimidazo[1,2-a]pyrazin-2-yl)-N-methyl-N-(2,2,6,6-tetramethylpiperidin-4-yl)[1,3]thiazolo[4,5-c]pyridin-2-amine], which IC50 is on record?
A: Its IC50 is no more than 100 nM.

Q: How did the IC50 turn out when `Cc1cn2cc(-c3cc4sc(N(C)C5CC(C)(C)NC(C)(C)C5)nc4cn3)cc2c(C)n1` [Compound 297, 6-(1,3-dimethylpyrrolo[1,2-a]pyrazin-7-yl)-N-methyl-N-(2,2,6,6-tetramethylpiperidin-4-yl)[1,3]thiazolo[4,5-c]pyridin-2-amine] was run?
A: The IC50 was no more than 100 nM.

Q: How did the IC50 turn out when `CN(c1nc2cnc(-c3cc(F)c4nn(C)cc4c3)cc2s1)C1CC2(C)CCC(C)(C1)N2` [Compound 298, N-[(1R,3s,5S)-1,5-dimethyl-8-azabicyclo[3.2.1]octan-3-yl]-6-(7-fIuoro-2-methyl-2H-indazol-5-yl)-N-methyl[1,3]thiazolo[4,5-c]pyridin-2-amine] was run?
A: The IC50 was no more than 100 nM.
